Patent publication US20220047507A1, “MELFLUFEN DOSAGE REGIMENS FOR CANCER” (ONCOPEPTIDES AB, priority 2015, published 2022)
Like-named read-outs stand apart in the source and are kept apart here.

Experiments:
[1] = tested on: patients with relapsed and/or relapsed-refractory multiple myeloma; assay: Safety of various dosages of melflufen, TEAEs (Example 1); type: in vivo, human
Experimental: Example 1: 4 dose levels (15, 25, 40 and 55 mg) of intravenous melflufen hydrochloride (excluding the mass of the salt component) in 290 to 370 ml glucose solution administered over 30 minutes on Day 1 of a 21-day cycle (in combination with dexamethasone treatment on Days 1, 8 and 15), for at least 1 cycle and up to 12 cycles, were evaluated.
Treatment emergent adverse events (TEAEs) of any grade were recorded in 29 patients that took part in Example 1 (4 patients at 15 mg dosage of melflufen over 30 minutes; 7 patients at 25 mg dosage of melflufen over 30 minutes; 12 patients at 40 mg dosage of melflufen over 30 minutes; and 6 patients at 55 mg dosage of melflufen over 30 minutes).

[2] = human, in vivo, iv
[3] = tested on: relapsed-refractory multiple myeloma (RRMM) patients; assay: Safety in patients with RRMM, Example 2b, time point (bii); type: in vivo, human; conditions: of the 57 patients in the ongoing melflufen study
MM cells = conditions: in vitro; cited from earlier work
[4] = tested on: primary MM cells from patients; conditions: in vitro, incl. patients relapsing after bortezomib, lenalidomide, dexamethasone; cited from earlier work
[5] = 55 mg melflufen hydrochloride, 6 patients
[6] = Example 1, all dose levels, 29 patients

In the case of `CCOC(=O)[C@H](Cc1ccc(F)cc1)NC(=O)[C@@H](N)Cc1ccc(N(CCCl)CCCl)cc1.Cl` [melflufen, L-Melphalanyl-4-fluoro-L-phenylalanine ethyl ester], the “Any treatment-related Grade 3 and 4 TEAE, n patients” value ([1]; 15 mg over 30 min (n = 4)) is reported as 2, the “Any treatment-related Grade 3 and 4 TEAE, total number of events” value ([1]; 15 mg over 30 min (n = 4)) is reported as “(4)” and the “Grade 3 and 4 febrile neutropenia, n patients” value ([1]; 15 mg over 30 min (n = 4)) is reported as 1. The “Grade 3 and 4 febrile neutropenia, total number of events” value ([1]; 15 mg over 30 min (n = 4)) was “(1)”, the “Grade 3 and 4 neutropenia, n patients” value ([1]; 15 mg over 30 min (n = 4)) was 0 and the “Grade 3 and 4 neutropenia, total number of events” value ([1]; 15 mg over 30 min (n = 4)) was “(0)”. For the same molecule, the “Grade 3 and 4 thrombocytopenia, n patients” value ([1]; 15 mg over 30 min (n = 4)) was 1, the “Grade 3 and 4 thrombocytopenia, total number of events” value ([1]; 15 mg over 30 min (n = 4)) was “(1)” and the “Any treatment-related Grade 3 and 4 TEAE, n patients” value ([1]; 25 mg over 30 min (n = 7)) was 5. For the same molecule, the “Any treatment-related Grade 3 and 4 TEAE, total number of events” value ([1]; 25 mg over 30 min (n = 7)) was “(13)”, the “Grade 3 and 4 febrile neutropenia, n patients” value ([1]; 25 mg over 30 min (n = 7)) was 0 and the “Grade 3 and 4 febrile neutropenia, total number of events” value ([1]; 25 mg over 30 min (n = 7)) was “(0)”. The “Grade 3 and 4 neutropenia, n patients” value ([1]; 25 mg over 30 min (n = 7)) was 2, the “Grade 3 and 4 neutropenia, total number of events” value ([1]; 25 mg over 30 min (n = 7)) was “(6)” and the “Grade 3 and 4 thrombocytopenia, n patients” value ([1]; 25 mg over 30 min (n = 7)) was 2. For the same molecule, the “Grade 3 and 4 thrombocytopenia, total number of events” value ([1]; 25 mg over 30 min (n = 7)) was “(3)”, the “Any treatment-related Grade 3 and 4 TEAE, n patients” value ([1]; 40 mg over 30 min (n = 12)) was 7 and the “Any treatment-related Grade 3 and 4 TEAE, total number of events” value ([1]; 40 mg over 30 min (n = 12)) was “(23)”. The “Grade 3 and 4 febrile neutropenia, n patients” value ([1]; 40 mg over 30 min (n = 12)) was 1, the “Grade 3 and 4 febrile neutropenia, total number of events” value ([1]; 40 mg over 30 min (n = 12)) was “(2)” and the “Grade 3 and 4 neutropenia, n patients” value ([1]; 40 mg over 30 min (n = 12)) was 4. The “Grade 3 and 4 neutropenia, total number of events” value ([1]; 40 mg over 30 min (n = 12)) was “(8)”, the “Grade 3 and 4 thrombocytopenia, n patients” value ([1]; 40 mg over 30 min (n = 12)) was 4 and the “Grade 3 and 4 thrombocytopenia, total number of events” value ([1]; 40 mg over 30 min (n = 12)) was “(9)”. For the same molecule, the “Anemia, treatment related ≥grade 3” value [1, 5] was “(33) %”, the “Any treatment-related grade 3 and/or grade 4, ≥grade 3” value [1, 5] was “(100) %” and the “Blood and lymphatic system disorders, treatment related ≥grade 3” value [1, 5] was “(100) %”. The “Cutaneous rash, treatment related ≥grade 3” value [1, 5] was “(17) %”, the “Fatigue, treatment related ≥grade 3” value [1, 5] was “(17) %” and the “General disorders and administration site conditions, treatment related ≥grade 3” value [1, 5] was “(17) %”. The “Infections and infestations, treatment related ≥grade 3” value [1, 5] was “(50) %”, the “Neutropenia, treatment related ≥grade 3” value [1, 5] was “(100) %” and the “Pancytopenia, treatment related ≥grade 3” value [1, 5] was “(17) %”. For the same molecule, the “Pneumonia, treatment related ≥grade 3” value [1, 5] was “(33) %”, the “Sepsis, treatment related ≥grade 3” value [1, 5] was “(17) %” and the “Skin and subcutaneous disorders, treatment related ≥grade 3” value [1, 5] was “(17) %”. For the same molecule, the “Thrombocytopenia, treatment related ≥grade 3” value [1, 5] was “(83) %”, the “Urinary tract infection, treatment related ≥grade 3” value [1, 5] was “(17) %” and the “Any treatment-related Grade 3 and 4 TEAE, n patients” value ([1]; 55 mg over 30 min (n = 6)) was 6. The “Any treatment-related Grade 3 and 4 TEAE, total number of events” value ([1]; 55 mg over 30 min (n = 6)) was “(58)”, the “Grade 3 and 4 febrile neutropenia, n patients” value ([1]; 55 mg over 30 min (n = 6)) was 1 and the “Grade 3 and 4 febrile neutropenia, total number of events” value ([1]; 55 mg over 30 min (n = 6)) was “(1)”. For the same molecule, the “Grade 3 and 4 neutropenia, n patients” value ([1]; 55 mg over 30 min (n = 6)) was 5, the “Grade 3 and 4 neutropenia, total number of events” value ([1]; 55 mg over 30 min (n = 6)) was “(17)” and the “Grade 3 and 4 thrombocytopenia, n patients” value ([1]; 55 mg over 30 min (n = 6)) was 5. For the same molecule, the “Grade 3 and 4 thrombocytopenia, total number of events” value ([1]; 55 mg over 30 min (n = 6)) was “(28)”, the “related Grade 3 or 4 neutropenia at least once, patients” value ([1]; Example 1, all dose levels) was 38% and the “related Grade 3 or 4 thrombocytopenia at least once, patients” value ([1]; Example 1, all dose levels) was 41%. The “total number of TEAEs reported” value ([1]; Example 1, all dose levels 15-55 mg, 29 patients) was 157, the “Grade 3 or 4 TEAEs, regardless of relationship, patients” value [1, 6] was 76% and the “anemia, all grades, regardless of relationship” value [1, 6] was 59%. For the same molecule, the “anemia, all grades, regardless of relationship, n patients” value [1, 6] was 17, the “nausea, all grades, regardless of relationship” value [1, 6] was 38% and the “nausea, all grades, regardless of relationship, n patients” value [1, 6] was 11. For the same molecule, the “neutropenia, all grades, regardless of relationship” value [1, 6] was 41%, the “neutropenia, all grades, regardless of relationship, n patients” value [1, 6] was 12 and the “thrombocytopenia, all grades, regardless of relationship” value [1, 6] was 69%. For the same molecule, the “thrombocytopenia, all grades, regardless of relationship, n patients” value [1, 6] was 20, the “Grade 3 or 4 TEAEs, regardless of relationship, n patients” value ([1]; Example 1, all dose levels, of 29 patients) was 22 and the “time after end of infusion within which melflufen is no longer measurable” value [2] was at most 15 min. The tmax ([2]; 25 mg) was 15 min, the tmax ([2]; 40 mg) was 25 min and the “fatal events while on treatment or within 30 days of last dose” value [3] was 11%. The “intracellular exposure (as AUC) of alkylating agents compared to an equimolar dosage of melphalan” value (MM cells) was at least 20 fold and the “cytotoxic activity in primary MM cells” value [4] was “Potent cytotoxic activity”.
